Measured values reported in patent US20190210973A1, “COMPOUNDS AND METHODS FOR TREATMENT OF CYSTIC FIBROSIS” (The Curators of the University of Missouri, priority 2018, published 2019).

Biological target: T1, G551D-CFTR (Homo sapiens, UniProt P13569, G551D)
T1 construct: The cDNA constructs of CFTR (G551D and delF508) were co-transfected with peGFP-C3; expressed in transfected cells; host or cells: CHO cells (ATCC), transient co-transfection with pEGFP-C3 (GFP as a separate marker, not fused)
Test: Patch-clamp recording of G551D-CFTR currents in excised inside-out patches of transfected CHO cells
Assay type: cell-based
Source text: Patch-clamp is considered the gold standard for assessing directly ion channel function in real time. By attaching a glass microelectrode on the surface of a cell, it is possible to record the currents generated by channels proteins that are present in this tiny “patch” of cell membranes. Since millions of ions pass through a single ion channel pore per second, the resulting microscopic currents from a single channel protein molecule can be detected with modem patch-clamp amplifiers. As ion channels (a conductor in electricity term) are arranged in parallel in the cell membrane, it is also possible to assay a group of ion channels by monitoring macroscopic currents representing the sum of currents from individual channels. Microscopic recordings allow artisans to examine exquisitely the effects of compounds on the Po and kinetic parameters of CFTR channels; whereas macroscopic recordings provide an assay not only to quantify the overall effects of compounds on N×Po×i, but also monitor the stability of the CFTR currents in real time.
Chinese hamster ovary (CHO) cells were grown at 37° C. in Dulbecco's modified Eagle's medium supplemented with 10% fetal bovine serum. Cells were subcultured into 35-mm tissue culture dishes 1 day before transfection. PolyFect transfection reagent (QIAGEN) was used to cotransfect CFTR cDNA and pEGFP-C3 (Takara Bio Inc.), which encodes green fluorescence proteins, into CHO cells. After transfection, cells were incubated at 27° C. for at least 2 days before electrophysiological experiments were performed.
Glass chips carrying the transfected cells were transferred to a chamber located on the stage of an inverted microscope (IX51; Olympus). Borosilicate capillary glasses were used to make patch pipettes using a two-stage micropipette puller (PP-81, Narishige, Japan). The pipettes were polished with a homemade microforge to a resistance of 2-4 MΩ in the bath solution. Once the seal resistance reached >40 GΩ, membrane patches were excised into an inside-out mode. Subsequently, the pipette was moved to the outlet of a three-barrel perfusion system and perfused with 25 IU PKA and 2 mM ATP until the CFTR current reached a steady state. A patch-clamp amplifier (EPC10, HEKA, Germany) was used to record electrophysiological data at room temperature. The data were filtered online at 100 Hz with an eight-pole Bessel filter (LPF-8; Warner Instruments) and digitized to a computer at a sampling rate of 500 Hz. […] Membrane potential was held at −30 or −50 mV for all recordings.
Disease-causing mutations (G551D and delF508) were made with PCR-based site-directed mutagenesis using the Pfu Ultra II (Agilent Technologies). […] The cDNA constructs of CFTR (G551D and delF508) were co-transfected with peGFP-C3 (Takara Bio Inc.) encoding the green fluorescent protein into CHO cells using PolyFect transfection reagent (QIAGEN). The transfected cells were transferred into 35 mm tissue culture dishes containing one layer of sterilized glass chips for cells to grow on. The transfected cells were incubated at 27° C. for 2-7 days before electrophysiological experiments were performed.
All patch-clamp experiments were carried out in the excised inside-out configuration. Micropipettes made of borosilicate capillary glass were pulled with a two-stage vertical puller (Narishige) and then fire-polished with a homemade microforge to reach a pipet resistance of 2-4 MΩ when the pipettes were filled with a standard inside-out pipet solution that contains: 140 mM N-Methyl-D-glucamine-Cl (NMDG-Cl), 2 mM MgCl2, 5 mM CaCl2) and 10 mM HEPES, adjusted to pH 7.4 with NMDG.

T1 sequence (P13569 whole entry G551D, the tested form may be a part): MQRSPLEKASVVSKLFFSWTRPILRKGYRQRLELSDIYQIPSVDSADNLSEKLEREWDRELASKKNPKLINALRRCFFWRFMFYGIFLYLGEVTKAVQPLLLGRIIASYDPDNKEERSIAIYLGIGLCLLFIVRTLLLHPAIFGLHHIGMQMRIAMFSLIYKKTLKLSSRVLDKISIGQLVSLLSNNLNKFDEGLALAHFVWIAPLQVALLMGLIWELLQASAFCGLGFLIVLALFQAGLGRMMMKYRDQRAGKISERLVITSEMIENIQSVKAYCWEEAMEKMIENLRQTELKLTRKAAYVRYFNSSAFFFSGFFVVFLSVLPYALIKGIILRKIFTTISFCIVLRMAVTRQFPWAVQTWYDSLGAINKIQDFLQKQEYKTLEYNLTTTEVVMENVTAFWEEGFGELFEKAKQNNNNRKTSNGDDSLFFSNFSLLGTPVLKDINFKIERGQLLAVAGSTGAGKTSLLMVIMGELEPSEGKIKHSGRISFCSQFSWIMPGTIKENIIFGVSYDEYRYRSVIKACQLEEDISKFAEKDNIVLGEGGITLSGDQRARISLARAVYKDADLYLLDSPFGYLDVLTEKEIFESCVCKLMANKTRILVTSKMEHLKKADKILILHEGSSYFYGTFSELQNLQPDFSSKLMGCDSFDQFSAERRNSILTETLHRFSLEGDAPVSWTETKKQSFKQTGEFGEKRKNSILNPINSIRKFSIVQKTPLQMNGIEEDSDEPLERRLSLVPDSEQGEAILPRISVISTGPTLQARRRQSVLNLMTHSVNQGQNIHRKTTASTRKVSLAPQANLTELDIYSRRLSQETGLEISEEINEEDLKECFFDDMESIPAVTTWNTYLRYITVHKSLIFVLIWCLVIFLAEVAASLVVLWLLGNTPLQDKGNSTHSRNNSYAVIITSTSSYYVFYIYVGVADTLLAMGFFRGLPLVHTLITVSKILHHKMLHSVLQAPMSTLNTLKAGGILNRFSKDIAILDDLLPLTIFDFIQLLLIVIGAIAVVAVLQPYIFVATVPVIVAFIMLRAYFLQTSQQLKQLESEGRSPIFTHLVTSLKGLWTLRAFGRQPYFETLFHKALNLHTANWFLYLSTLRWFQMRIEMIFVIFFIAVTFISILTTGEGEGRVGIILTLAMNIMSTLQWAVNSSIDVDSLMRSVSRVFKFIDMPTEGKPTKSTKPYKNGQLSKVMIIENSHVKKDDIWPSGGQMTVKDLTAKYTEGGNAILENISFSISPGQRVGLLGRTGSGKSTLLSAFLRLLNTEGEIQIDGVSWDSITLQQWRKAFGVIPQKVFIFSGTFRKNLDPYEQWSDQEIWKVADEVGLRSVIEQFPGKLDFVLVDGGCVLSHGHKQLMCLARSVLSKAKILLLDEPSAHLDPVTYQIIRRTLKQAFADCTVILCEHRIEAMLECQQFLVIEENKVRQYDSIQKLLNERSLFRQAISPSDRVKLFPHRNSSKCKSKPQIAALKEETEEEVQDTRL

CC(C)(C)c1cc(C(C)(C)C)c(NC(=O)c2c[nH]c3ccccc3c2=O)cc1O [VX-770, Ivacaftor, reference compound]
fold increase of mean G551D-CFTR current (200 nM VX-770 alone): around 10 folds | effect on G551D-CFTR currents, compound alone (after activation by PKA and ATP): increased the current to approximately the same level as LZH-00014
